Measured values from the NIST ThermoML archive (doi:10.1016/j.tca.2011.07.005).
Numbers after ± are expanded uncertainties.

Assays:
[1] = xn = mol fraction of the nth substance listed; details: 101 kPa, Liquid; for speed of sound: Linear variable-path acoustic interferometer; for mass density: Pycnometric method
[2] = 101 kPa, Liquid; for speed of sound: Linear variable-path acoustic interferometer; for mass density: Pycnometric method

CC(C)OC(C)C [diisopropyl ether] + Nc1cccc(Cl)c1
[1], x1 = 1
Details	mass density [kg/m3]	speed of sound [m/s]
303.15 K	712.9 ± 0.3	976 ± 2
313.15 K	702.9 ± 0.3	932 ± 2
323.15 K	691.9 ± 0.3	889 ± 2

Nc1ccccc1Cl [2-chlorobenzeneamine] + C1CCOC1
[1]
Details	mass density, 303.15 K [kg/m3]	mass density, 313.15 K [kg/m3]	mass density, 323.15 K [kg/m3]	speed of sound, 303.15 K [m/s]	speed of sound, 313.15 K [m/s]	speed of sound, 323.15 K [m/s]
x2 = 0	1202.7 ± 0.4	1193 ± 0.4	1183.3 ± 0.4	1470 ± 3	1438 ± 3	1402 ± 3
x2 = 0.0695	1187.6 ± 0.4	1177.4 ± 0.4	1167.9 ± 0.4	1461 ± 3	1427 ± 3	1395 ± 3
x2 = 0.1543	1167.6 ± 0.4	1157.7 ± 0.4	1148.6 ± 0.4	1450 ± 3	1415 ± 3	1383 ± 3
x2 = 0.2423	1146 ± 0.4	1136.3 ± 0.4	1127 ± 0.4	1436 ± 3	1401 ± 3	1369 ± 3
x2 = 0.3275	1124.2 ± 0.4	1114.5 ± 0.4	1105 ± 0.4	1422 ± 3	1386 ± 3	1353 ± 3
x2 = 0.4213	1098.7 ± 0.4	1088.7 ± 0.4	1079.1 ± 0.4	1404 ± 3	1367 ± 3	1333 ± 3
x2 = 0.5259	1067.6 ± 0.4	1057.4 ± 0.4	1047.5 ± 0.4	1383 ± 3	1344 ± 3	1308 ± 2
x2 = 0.6325	1032 ± 0.4	1021.8 ± 0.4	1012.2 ± 0.4	1359 ± 3	1319 ± 2	1281 ± 2
x2 = 0.744	990.1 ± 0.4	980.1 ± 0.4	971 ± 0.4	1331 ± 3	1289 ± 2	1250 ± 2
x2 = 0.8663	938.4 ± 0.3	928.5 ± 0.4	920 ± 0.4	1296 ± 2	1252 ± 2	1212 ± 2

C1CCOC1 [tetrahydrofuran] + Nc1cccc(Cl)c1
[1], x1 = 1
Details	mass density [kg/m3]	speed of sound [m/s]
303.15 K	876.9 ± 0.3	1254 ± 2
313.15 K	865.7 ± 0.3	1207 ± 2
323.15 K	854.8 ± 0.3	1165 ± 2

CC(C)OC(C)C [diisopropyl ether]
[2]
Details	mass density [kg/m3]	speed of sound [m/s]
303.15 K	712.9 ± 0.3	976 ± 2
313.15 K	702.9 ± 0.3	932 ± 2
323.15 K	691.9 ± 0.3	889 ± 2

C1CCOC1 [tetrahydrofuran]
[2]
Details	mass density [kg/m3]	speed of sound [m/s]
303.15 K	876.9 ± 0.3	1254 ± 2
313.15 K	865.7 ± 0.3	1207 ± 2
323.15 K	854.8 ± 0.3	1165 ± 2
